From the supplement of paper PMC10307832

Tests used:
Experiment in all cases: relative viability (nuclei count vs DMSO), 5 days (fraction); higher = more cells survive
Avagacestat + Bortezomib = compound: NC(=O)[C@@H](CCC(F)(F)F)N(Cc1ccc(-c2ncon2)cc1F)S(=O)(=O)c1ccc(Cl)cc1 [Avagacestat] + CC(C)C[C@H](NC(=O)[C@H](Cc1ccccc1)NC(=O)c1cnccn1)B(O)O [Bortezomib] (partner 0.002 µM)
In short: (§1)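 Lung cancer cell lines, seeded in 1536-well plates, were treated the following day by pin tool with a single drug or with five library-drug doses (not always all listed) in √10 steps on top of a fixed anchor-drug dose. Cells were fixed and nuclei stained in one step after 5 days, and nuclei were counted. Relative viability is the nuclei count for treated wells divided by that for vehicle wells, reported as medians of duplicate plates.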

[1] = compound: NC(=O)[C@@H](CCC(F)(F)F)N(Cc1ccc(-c2ncon2)cc1F)S(=O)(=O)c1ccc(Cl)cc1 [Avagacestat] + CC(=O)c1c(C)c2cnc(Nc3ccc(N4CCNCC4)cn3)nc2n(C2CCCC2)c1=O [Palbociclib] (partner 0.5 µM)
In short: as §1

Avagacestat + Pictilisib = compound: NC(=O)[C@@H](CCC(F)(F)F)N(Cc1ccc(-c2ncon2)cc1F)S(=O)(=O)c1ccc(Cl)cc1 [Avagacestat] + CS(=O)(=O)N1CCN(Cc2cc3nc(-c4cccc5[nH]ncc45)nc(N4CCOCC4)c3s2)CC1 [Pictilisib] (partner 1 µM)
In short: as §1

Avagacestat + Foretinib = compound: NC(=O)[C@@H](CCC(F)(F)F)N(Cc1ccc(-c2ncon2)cc1F)S(=O)(=O)c1ccc(Cl)cc1 [Avagacestat] + COc1cc2c(Oc3ccc(NC(=O)C4(C(=O)Nc5ccc(F)cc5)CC4)cc3F)ccnc2cc1OCCCN1CCOCC1 [Foretinib] (partner 0.25 µM)
In short: as §1

Cell Line	relative viability (Avagacestat + Bortezomib; first compound 0.08 µM)	relative viability (Avagacestat + Bortezomib; first compound 0.253 µM)	relative viability (Avagacestat + Bortezomib; first compound 0.8 µM)	relative viability (Avagacestat + Bortezomib; first compound 2.53 µM)	relative viability (Avagacestat + Bortezomib; first compound 8 µM)	relative viability ([1]; first compound 0.08 µM)	relative viability ([1]; first compound 0.253 µM)	relative viability ([1]; first compound 0.8 µM)	relative viability ([1]; first compound 2.53 µM)	relative viability ([1]; first compound 8 µM)	relative viability (Avagacestat + Pictilisib; first compound 0.08 µM)	relative viability (Avagacestat + Pictilisib; first compound 0.253 µM)	relative viability (Avagacestat + Pictilisib; first compound 0.8 µM)	relative viability (Avagacestat + Pictilisib; first compound 2.53 µM)	relative viability (Avagacestat + Pictilisib; first compound 8 µM)	relative viability (Avagacestat + Foretinib; first compound 0.08 µM)	relative viability (Avagacestat + Foretinib; first compound 0.253 µM)	relative viability (Avagacestat + Foretinib; first compound 0.8 µM)	relative viability (Avagacestat + Foretinib; first compound 2.53 µM)	relative viability (Avagacestat + Foretinib; first compound 8 µM)
LCLC-97TM1	0.98	0.625	1.38	0.786	0.482	0.294	0.264	0.312	0.185	0.206	0.184	0.138	0.139	0.181	0.145	0.977	0.916	0.894	0.92	0.944
LCLC-103H	1.01	1.07	1.03	1.07	1.04	0.54	0.444	0.473	0.501	0.446	0.629	0.533	0.572	0.58	0.509	0.803	0.849	0.757	0.56	0.784
LOU-NH91	0.541	0.509	0.51	0.478	0.485	0.533	0.482	0.574	0.52	0.525	0.491	0.475	0.559	0.515	0.498	0.925	0.916	0.974	0.886	0.893
LU99A	1.28	1.13	0.938	1.1	1.19	0.407	0.429	0.472	0.414	0.366	0.282	0.325	0.341	0.277	0.307	0.807	0.875	0.925	0.837	0.786
LXF-289	1.04	1.1	0.972	0.99	0.911	0.624	0.613	0.612	0.578	0.582	0.786	0.857	0.781	0.753	0.66	1.04	0.957	0.992	0.982	0.893
NCI-H23	1.19	1.42	1.12	1	0.822	0.515	0.566	0.505	0.44	0.572	0.523	0.453	0.472	0.475	0.555	1.11	1.17	0.925	1.14	0.93
NCI-H322M	1.27	1.23	1.4	1.05	1.17	0.456	0.442	0.455	0.419	0.531	0.503	0.487	0.478	0.441	0.415	0.969	0.935	1.04	0.728	0.774
NCI-H441	0.66	0.925	0.531	0.485	0.248	0.242	0.214	0.249	0.229	0.218	0.54	0.515	0.496	0.442	0.415	0.975	1.29	1.04	1.14	0.956
NCI-H460			1.36	1.18	1.15	0.128	0.104	0.14	0.146	0.131	0.425	0.361	0.454	0.441	0.365	1.02	1.4	1.05	0.827	0.885
NCI-H520	0.728	0.555	0.679	0.48	0.334	0.21	0.23	0.198	0.194	0.201	0.302	0.291	0.274	0.229	0.205	0.755	0.753	0.731	0.657	0.629
NCI-H647	1.66	1.15	1.14	1.06	0.922	0.456	0.497	0.486	0.341	0.35	0.487	0.504	0.459	0.41	0.372	1.38	1.41	1.27	1.21	1.11
NCI-H650	1.08	0.948	1.16	1.03	0.735	0.313	0.361	0.314	0.275	0.308	0.768	0.989	1.03	1.07	0.82	1.05	1.08	1.11	1.08	1.11
NCI-H661	0.919	1.06	0.774		0.693	0.415	0.343	0.428	0.386	0.419	0.435	0.38	0.487		0.471	1.04	1.17	1.07	0.974	1.08
NCI-H727	0.956	0.927	1.04	0.981	0.828	0.578	0.577	0.606	0.684	0.672	0.537	0.356	0.512	0.434	0.603	0.947	0.932	0.803	0.783	0.881
NCI-H838	0.977	0.922	0.93	0.863	0.502	0.221	0.244	0.226	0.208	0.215	0.504	0.405	0.568	0.411	0.319	1.1	1.35	1.07	1.01	0.944
NCI-H1355	1.37	1.38	1.33	1.14	1.1	0.441	0.418	0.353	0.351	0.333	0.442	0.423	0.421	0.385	0.418	1.11	1.24	0.961	0.846	0.785

Cell Line	relative viability (Avagacestat + Bortezomib; first compound 0.08 µM)	relative viability (Avagacestat + Bortezomib; first compound 0.253 µM)	relative viability (Avagacestat + Bortezomib; first compound 0.8 µM)	relative viability (Avagacestat + Bortezomib; first compound 2.53 µM)	relative viability (Avagacestat + Bortezomib; first compound 8 µM)	relative viability ([1]; first compound 0.08 µM)	relative viability ([1]; first compound 0.253 µM)	relative viability ([1]; first compound 0.8 µM)	relative viability ([1]; first compound 2.53 µM)	relative viability ([1]; first compound 8 µM)	relative viability (Avagacestat + Pictilisib; first compound 0.08 µM)	relative viability (Avagacestat + Pictilisib; first compound 0.253 µM)	relative viability (Avagacestat + Pictilisib; first compound 0.8 µM)	relative viability (Avagacestat + Pictilisib; first compound 2.53 µM)	relative viability (Avagacestat + Pictilisib; first compound 8 µM)	relative viability (Avagacestat + Foretinib; first compound 0.08 µM)	relative viability (Avagacestat + Foretinib; first compound 0.253 µM)	relative viability (Avagacestat + Foretinib; first compound 0.8 µM)	relative viability (Avagacestat + Foretinib; first compound 2.53 µM)	relative viability (Avagacestat + Foretinib; first compound 8 µM)
NCI-H1437	0.602	0.69	0.519	0.379	0.282	0.329	0.341	0.361	0.306	0.294	0.388	0.399	0.417	0.399	0.366	1.42	1.41	1.27	1.23	1.11
NCI-H1650	0.212	0.232	0.196	0.211	0.21	0.318	0.241	0.406	0.331	0.351	0.693	0.577	0.552	0.542	0.476	1.47	1.11	1.06	1.04	1.09
NCI-H1651	1.06	1.07	1.05	0.944	0.933	0.521	0.51	0.569	0.46	0.504	0.566	0.576	0.711	0.585	0.368	0.899	0.884	0.895	0.847	0.596
NCI-H1666	0.942	0.78	0.861	0.83	0.842	0.69	0.699	0.642	0.714	0.644	0.416	0.445	0.499	0.48	0.49	1.32	1.15	1.16	1.07	1.07
NCI-H1734	1.26	1.01	1.01	1.01	0.945	0.384	0.335	0.399	0.301	0.328	0.538	0.483	0.462	0.419	0.418	0.932	0.934	0.839	0.771	0.835
NCI-H1755	0.996	1.11	1.07	0.967	0.937	0.444	0.438	0.492	0.389	0.463	0.487	0.445	0.445	0.428	0.367	0.951	0.921	1	0.847	0.849
NCI-H1915	1.02	1.11	1.13	1	0.951	0.513	0.522	0.477	0.502	0.519	0.962	1.05	0.949	1	0.93	1.21	1.26	1.21	1.06	1.03
NCI-H1975	0.382	0.343	0.415	0.327	0.318	0.688	0.633	0.887	0.599	0.536	0.338	0.289	0.325	0.258	0.298	1.1	1.16	0.988	1.02	1.01
NCI-H1993	1.37	1.35	1.47	1.27	1.3	0.758	0.714	0.705	0.572	0.638	0.675	0.664	0.856	0.817	0.696	0.924	0.885	0.973	0.763	0.787
NCI-H2009	1.04	1.03	1.07	1.02	0.828	0.201	0.202	0.214	0.215	0.199	0.986	0.946	0.983	0.808	0.778	1.31	1.39	1.24	1.24	1.21
NCI-H2023	1.13	1.1	1.08	0.886	0.808	0.363	0.327	0.33	0.316	0.294	0.249	0.225	0.255	0.184	0.185	0.857	0.892	1	0.847	0.65
NCI-H2085	1.13	1.21	1.14	1.13	0.992	0.464	0.469	0.478	0.468	0.511	0.543	0.461	0.518	0.501	0.46	1.25	1.09	1.06	1.11	0.911
NCI-H2087	0.946	1.05	0.917	0.918	0.8	0.228	0.181	0.276	0.223	0.231	0.905	1.04	1.27	0.896	0.955	1.11	1.39	1.09	1.09	1.23
NCI-H2126	1.15	1.1	1.1	1.18	1.02	0.395	0.355	0.385	0.358	0.373	0.521	0.461	0.487	0.477	0.463	1.53	1.21	1.34	1.06	1.02
NCI-H2228	1.12	0.952	1.05	0.886	0.734	0.783	0.819	0.947	0.911	0.595	0.431	0.498	0.556	0.346	0.349	1.07	1.1	0.941	0.773	0.793
NCI-H2347	1.1	0.914	0.935	0.862	0.79	0.398	0.481	0.409	0.445	0.462	0.467	0.688	0.849	0.387	0.624	1.22	1.07	0.931	0.842	0.977
